# Assay results as given in US20080119412A1, “Polypeptides for Modulating Binding of Trp Channel Proteins and Trp- Associated Proteins” (NoNO Inc., priority 2003, published 2008).
# Residues, ends and D or L forms follow the SMILES beside them. *: point of attachment. Biotin = O=C1N[C@H]2[C@H](CS[C@H]2CCCCC(=O)*)N1
# Key:
# [1] = biological target: T1, PAR3 d3 (Homo sapiens, UniProt Q8TEW0, R682S); experiment: G3 assay titration, GST-PDZ fusion / biotinylated peptide; assay type: binding
# T1 construct: made in house; host or cells: E. coli (DH5alpha, BL21 or JM109)
# T1 sequence (Q8TEW0 with tags, fused parts or gaps R682S): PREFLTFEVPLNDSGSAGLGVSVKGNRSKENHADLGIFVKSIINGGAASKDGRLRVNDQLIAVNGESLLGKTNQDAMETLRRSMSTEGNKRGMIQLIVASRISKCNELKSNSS
# [2] = biological target: T2, RIM2 d1 (Homo sapiens, UniProt Q9UQ26); experiment: as above; assay type: binding
# T2 construct: made in house; host or cells: E. coli (DH5alpha, BL21 or JM109)
# T2 sequence (Q9UQ26 632-757): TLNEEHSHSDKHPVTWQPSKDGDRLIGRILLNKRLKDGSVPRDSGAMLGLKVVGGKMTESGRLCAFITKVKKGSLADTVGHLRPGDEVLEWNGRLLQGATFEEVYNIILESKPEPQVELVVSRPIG
structure (smiles),measurement,setting,value
CSCC[C@H](NC(=O)[C@H](CC(C)C)NC(=O)[C@H](CCCNC(=N)N)NC(=O)[C@@H](NC(=O)[C@H](CO)NC(=O)[C@H](CC(N)=O)NC(=O)[C@@H](NC(=O)[C@H](CO)NC(=O)[C@H](CCCNC(=N)N)NC(=O)[C@H](CCCNC(=N)N)NC(=O)[C@H](CCCNC(=N)N)NC(=O)[C@H](CCC(N)=O)NC(=O)[C@H](CCCNC(=N)N)NC(=O)[C@H](CCCNC(=N)N)NC(=O)[C@H](CCCCN)NC(=O)[C@H](CCCCN)NC(=O)[C@H](CCCNC(=N)N)NC(=O)CNC(=O)[C@H](Cc1ccc(O)cc1)NC(=O)CCCC[C@@H]1SC[C@@H]2NC(=O)N[C@@H]21)[C@@H](C)O)C(C)C)C(=O)N[C@@H](CC(C)C)C(=O)O [Tat-TRPM7 peptide] (Biotin-YGRKKRRQRRRSTNSVRLML-OH),EC50,[1],18 nM
same,EC50,[2],47 nM
